Results published in patent US10316021B2, “Heteroarylphenoxy benzamide kappa opioid ligands” (Pfizer Inc., priority 2016, dated 2019).
Entries after “also recorded” stand apart in the source; their conditions may differ. Where two headings read alike, the source gives them in different places.

Legend:
[1] = In vitro intrinsic clearance in human liver microsomes; type: in vitro ADME
Procedure: Determination of In Vitro Intrinsic Clearance in Human Liver Microsomes:
Compounds were prepared as solutions in methanol. The final concentration of methanol in the incubation media was 0.2% (v/v). […] The total incubation volume was 1 mL. The reaction mixture was pre-warmed at 37° C. for 2 min before adding NADPH (1.2 mM). Aliquots (75 μL) of the reaction mixture at 0, 5, 10, 15, and 30 min were added to acetonitrile (200 μL) containing internal standard (terfenadine)(0.05 μg/mL), and the samples were centrifuged at 2500 g for 5 min prior to liquid chromatography/tandem mass spectrometry (LC/MS-MS) analysis of each compound using multiple reaction monitoring (MRM). For control experiments, NADPH was omitted from these incubations.
The microsomal half-life (t1/2) was obtained from a log-linear plot of the substrate depletion vs incubation time and was scaled to hepatic intrinsic clearance (CLint) using the following equation, in which the term t1/2 refers to the in vitro half-life: […]

[2] = target: T1, human kappa opioid receptor (hKOR) (Homo sapiens, UniProt P41145); assay: Kappa radioligand binding assay ([3H]diprenorphine, CHO cell membranes); conditions: for Selectivity hMOR/hKOR: selectivity ratio calculated by dividing the hMOR Ki by the hKOR Ki
T1 construct: expressed in transfected cells; host or cells: CHO cells
Procedure: (§1) Kappa and Mu Radioligand Binding Assay:
(§2) Binding assays on membranes from CHO cells expressing human kappa or mu opioid receptors were performed according to standard procedures. Frozen cell paste was homogenized in 50 mM Tris HCl buffer (pH 7.4 @ 4 degrees C.) containing 2.0 mM MgCl2 using a Polytron and spun in a centrifuge at 40,000 g for ten minutes. The final pellet was resuspended in assay buffer (50 mM Tris HCl buffer, pH 7.4, containing 1 mM EDTA, 5 mM MgCl2). Incubations were initiated by the addition of membranes to 96-well plates containing test drugs and [^3H]diprenorphine (0.6 nM final concentration for kappa opioid receptor and 0.5 nM final concentration for mu) in a final volume of 250 μl. Non-specific binding was determined by radioligand binding in the presence of a saturating concentration of naltrexone (10 μM). After a one hour incubation period at room temperature, assay samples were rapidly filtered through PEI coated, GF/B fired Unifilter plates (PerkinElmer) and rinsed with ice-cold 50 mM Tris buffer (pH 7.4). Membrane bound [^3H]diprenorphine levels were determined by liquid scintillation counting of the filterplates in Ecolume scintillation fluid. The IC50 value (concentration at which 50% inhibition of specific binding occurs) was calculated using a logistic 4 parameter fit model of the concentration-response data. Ki values were calculated according to the Cheng Prusoff equation, Ki=IC50/(1+(L/Kd)), where L is the concentration of the radioligand used in the experiment and the Kd value is the dissociation constant for the radioligand (determined previously by saturation analysis).

major CYP450 isozymes = assay: CYP450 DDI cocktail assay (reversible inhibition, all isozymes together); type: in vitro ADME, human; conditions: CYP450 DDI cocktail assay, isozymes inhibited in brackets
Procedure: Multi-Point Cocktail DDI IC50 Assay Conditions:
Standard marker activity substrates were incubated with pooled human liver microsomes (HL-MIX-102) in the presence of NADPH (1.2 mM) in 100 mM KH2PO4, pH 7.4 containing 3.3 mM MgCl2 at 37° C. The incubation volume was 0.1 mL, utilizing a 384-well plate format. The microsomal protein concentrations (0.1 mg/mL) and P450 concentration (0.035 μM) was used for each probe substrate at the following concentrations [tacrine (1A2) 2 uM; diclofenac (2C9) 5 μM; dextromethorphan (2D6) 5 μM; midazolam (3A4) 2 μM; taxol (2C8) 5 μM; S-mephenytoin (2C19) 40 μM]. Substrate concentrations were near Km values that had been previously determined and incubation times were selected based on determinations of reaction velocity linearity. Each test compound/prototypical inhibitors was tested at a concentration range of 0-30 μM in triplicate, in final vehicle solvent concentrations of 0.9% acetonitrile and 0.1% DMSO. Incubations were initiated with the addition of NADPH. At the end of the incubation period, termination solvent containing internal standard was added, the terminated incubation mixture was centrifuged to precipitate microsomal protein. Samples were directly injected on an HPLC-MS/MS system. A Biomek FX workstation was used for liquid handling and sample incubation.
Reversible CYP450 inhibitory potential for each compound was assessed using the CYP450 DDI cocktail assay, measuring the inhibition of the metabolism of a known probe substrate of each of the major CYP isozymes at 3 μM concentration.

[3] = target: T2, human mu opioid receptor (hMOR) (Homo sapiens, UniProt P35372); assay: Mu radioligand binding assay ([3H]diprenorphine, CHO cell membranes)
T2 construct: expressed in transfected cells; host or cells: CHO cells
Procedure: as §1
as §2, with “The IC50 value (concentration at which 50% inhibition of specific binding occurs) was calculated using a logistic 4 parameter fit model of the concentration-response data.” left out

kappa opioid receptor [4] = target: T3, kappa opioid receptor (Mus musculus, UniProt P33534); assay: In vivo receptor occupancy (displacement of [3H]GR103545 in brain); conditions: subcutaneous dosing
T3 construct: from tissue; host or cells: brain of adult male C57BL/6J mice (in vivo)
Source text: (§3) Adult male C576BL/J6 mice from Jackson Labs (Bar Harbor, Me.) were group housed on individually-vented cage racks, in environmentally-controlled animal quarters (light/dark-6:00 am/6:[…]) for a minimum of 7 days prior to use. For progressive ratio studies, mice were food-restricted to 80-85% of their body weight before testing began. All animal procedures were approved by the Pfizer Inc. IACUC and conducted in accordance with the NIH Guide for the Care and Use of Laboratory Animals.
In Vivo Receptor Occupancy
In vivo receptor occupancy was assessed in adult male C57BL6/J mice. Mice were administered increasing doses (0.001-32 mg/kg s.c.) 30 min prior to administration of the kappa opioid receptor ligand, [^3H]GR103545 (100 μCi/kg, intraorbital). Animals were euthanized 10 min later using cervical dislocation and the brains dissected. One hemisphere was stored at −40° C. for subsequent measurement of compound concentration, the other was homogenized in chilled Tris-HCl buffer (50 mM, pH 7.4; 1:10 w/v) for twenty seconds. Samples of brain homogenate were filtered through 0.3 to 0.5% PEI-soaked GF/B filters, and the filters washed twice with chilled buffer before radioactivity was counted overnight using a scintillation counter. Binding of the ligand in cerebellum was used to determine non-specific binding.

kappa opioid receptor [5] = target: T3, kappa opioid receptor; assay: Progressive ratio responding (reversal of spiradoline-induced deficit in motivation); type: in vivo; conditions: co-administered with spiradoline, receptor occupancy measured in a separate group of animals
Source text: as §3
Progressive Ratio Responding:
Motivation and food-reinforced operant behavior were assessed in the progressive ratio assay. Adult male C576BL/J6 mice were food-restricted to 80-85% of their body weight over a period of one week and kept in their home cages. Mice were trained to nose-poke for a food reward. […] Mice were assessed in a 60 minute session, where the number of rewards obtained was used as a surrogate of the level of motivation. Once mice had reached a stable level of responding, mice were dosed with the kappa opioid receptor agonist, spiradoline (3.2 mg/kg s.c.), to induce a deficit in motivation. Mice were co-administered increasing doses of the kappa opioid receptor antagonists (0.0032-3.2 mg/kg s.c.) to assess their ability to antagonize the spiradoline-induced deficit.

[6] = Table 19, geometric mean of 2-6 determinations unless otherwise indicated (Example 3: >=7), read-out: hKOR binding assay Ki
[7] = Table 20, radioligand binding, read-out: hKOR binding assay Ki
[8] = Table 19, geometric mean of 2-6 determinations unless otherwise indicated (Example 3: >=7), read-out: hMOR binding assay Ki
[9] = Table 20, radioligand binding, read-out: hMOR binding assay Ki

T2 sequence (P35372 whole entry): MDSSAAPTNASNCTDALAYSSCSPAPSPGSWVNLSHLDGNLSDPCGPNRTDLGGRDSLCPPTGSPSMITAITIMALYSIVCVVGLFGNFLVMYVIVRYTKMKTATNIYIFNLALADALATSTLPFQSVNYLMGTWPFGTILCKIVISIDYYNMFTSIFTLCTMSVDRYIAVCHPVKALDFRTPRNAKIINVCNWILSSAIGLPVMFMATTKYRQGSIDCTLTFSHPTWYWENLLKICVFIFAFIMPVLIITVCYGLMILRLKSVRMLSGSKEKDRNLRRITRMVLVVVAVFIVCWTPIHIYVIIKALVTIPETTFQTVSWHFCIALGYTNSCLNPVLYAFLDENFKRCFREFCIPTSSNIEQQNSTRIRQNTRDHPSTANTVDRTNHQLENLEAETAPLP
T3 sequence (P33534 whole entry): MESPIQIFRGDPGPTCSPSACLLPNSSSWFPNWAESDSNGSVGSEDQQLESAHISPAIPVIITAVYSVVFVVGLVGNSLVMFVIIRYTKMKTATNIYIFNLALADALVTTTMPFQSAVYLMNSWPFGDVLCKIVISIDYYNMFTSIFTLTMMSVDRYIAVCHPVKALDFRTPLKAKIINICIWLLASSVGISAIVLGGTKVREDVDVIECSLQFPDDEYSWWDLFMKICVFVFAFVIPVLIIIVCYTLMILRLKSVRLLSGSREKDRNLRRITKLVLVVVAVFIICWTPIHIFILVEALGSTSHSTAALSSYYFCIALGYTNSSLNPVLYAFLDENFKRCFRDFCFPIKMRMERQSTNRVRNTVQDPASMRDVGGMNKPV
T1 sequence (P41145 whole entry): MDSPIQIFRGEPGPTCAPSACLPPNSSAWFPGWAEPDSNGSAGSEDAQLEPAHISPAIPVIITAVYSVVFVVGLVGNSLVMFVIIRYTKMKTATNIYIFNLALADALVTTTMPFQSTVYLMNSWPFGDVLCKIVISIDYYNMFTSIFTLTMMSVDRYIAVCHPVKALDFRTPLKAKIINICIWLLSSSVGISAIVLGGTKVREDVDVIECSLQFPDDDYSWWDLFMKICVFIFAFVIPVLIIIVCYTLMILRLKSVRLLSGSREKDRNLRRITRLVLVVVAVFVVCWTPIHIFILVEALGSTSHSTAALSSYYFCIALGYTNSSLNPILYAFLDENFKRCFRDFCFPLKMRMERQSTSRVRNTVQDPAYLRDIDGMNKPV

SMILES | hepatic / metabolic clearance in human liver microsomes, in words [1] | CLint scaled at 2 μM ([1]; human, pH 7.4, human liver microsomal intrinsic clearance, read-out: HLM CLint) | Ki [2, 6] | Ki [2, 7] | Selectivity hMOR/hKOR [2] | >25% reversible inhibition of CYP activity at 3 μM (CYP) (major CYP450 isozymes) | Ki [3, 8] | Ki [3, 9] | KOR potency, in words [2] | IC50 (kappa opioid receptor [4]; displacement of [3H]GR103545, unbound brain concentration, read-out: Mouse KOR IVRO unbound brain IC50) | % KOR IVRO to achieve 50% PR reversal (kappa opioid receptor [5]) | Ki ([2]; radioligand binding, [3H]diprenorphine, read-out: hKOR Ki) | Ki ([3]; radioligand binding, [3H]diprenorphine, read-out: hMOR Ki) | selectivity for KOR over MOR, in words [2] | displacement of KOR agonist radioligand binding in the brain, in words (kappa opioid receptor [4])
Cc1cc(C2CCCN2Cc2ccc(Oc3ccc(C(N)=O)cc3F)cc2)on1 (centres unmarked) [Example 42] | – | – | 54.7 nM | 54.7 nM | 5.8 | – | 318 nM | 318 nM | low KOR potency | – | – | – | – | – | –
Cc1cnn(C)c1C1CCCN1Cc1ccc(Oc2ccc(C(N)=O)cc2F)cc1 (centres unmarked) [Example 43] | – | – | 16.8 nM | 16.8 nM | 3 | – | 56.2 nM | 56.2 nM | – | – | – | – | – | unacceptably lower levels of selectivity (MOR/KOR) | –
Cc1cc(C2CCCN2Cc2ccc(Oc3ccc(C(N)=O)cc3F)cc2)nn1C (centres unmarked) [Example 44] | – | – | 14.5 nM | 14.5 nM | 9 | – | 127 nM | 127 nM | – | – | – | – | – | unacceptably lower levels of selectivity (MOR/KOR) | –
COc1nn(C)cc1C1CC(F)CN1Cc1ccc(Oc2ccc(C(N)=O)cc2)cc1 (stereo not drawn) [isomer of Example 24] | – | – | – | – | – | – | – | – | – | – | – | 36.3 nM | 1210 nM | – | –

Continued by falling Ki [2, 6], values first:

hepatic / metabolic clearance in human liver microsomes, in words [1] | CLint scaled at 2 μM ([1]; human, pH 7.4, human liver microsomal intrinsic clearance, read-out: HLM CLint) | Ki [2, 6] | Ki [2, 7] | Selectivity hMOR/hKOR [2] | >25% reversible inhibition of CYP activity at 3 μM (CYP) (major CYP450 isozymes) | Ki [3, 8] | Ki [3, 9] | KOR potency, in words [2] | IC50 (kappa opioid receptor [4]; displacement of [3H]GR103545, unbound brain concentration, read-out: Mouse KOR IVRO unbound brain IC50) | % KOR IVRO to achieve 50% PR reversal (kappa opioid receptor [5]) | Ki ([2]; radioligand binding, [3H]diprenorphine, read-out: hKOR Ki) | Ki ([3]; radioligand binding, [3H]diprenorphine, read-out: hMOR Ki) | SMILES | selectivity for KOR over MOR, in words [2] | displacement of KOR agonist radioligand binding in the brain, in words (kappa opioid receptor [4])
– | – | 1.7 nM | 1.7 nM | 64 | – | 108 nM | 108 nM | excellent potency | 0.25 nM | 85% | – | – | Cc1cc([C@@H]2CCCN2Cc2ccc(Oc3ccc(C(N)=O)cc3F)cc2)n(C)n1 [Example 45, 4-(4-{[(2S)-2-(1,3-dimethyl-1H-pyrazol-5-yl)pyrrolidin-1-yl]methyl}phenoxy)-3-fluorobenzamide] | excellent potency and selectivity over MOR; also recorded: more selective than the phenyl examples, Comparators A and B | displaced KOR agonist radioligand ([^3H]GR103545) binding in the brain in an exposure-dependent manner
higher metabolic clearance | 105 mL/min/kg | 0.657 nM | 0.657 nM | 38 | no | 25 nM | 25 nM | – | – | – | – | – | COc1cc(C2CCCN2Cc2ccc(Oc3ccc(C(N)=O)cc3)cc2)n(C)n1 (single isomer, unassigned) [Example 46, 4-(4-{[2-(3-methoxy-1-methyl-1H-pyrazol-5-yl)pyrrolidin-1-yl]methyl}phenoxy)benzamide] | – | –
